Data set [1] is described as follows: cytotoxicity test, alamarBlue method. The data set is classed as cell-based. Particulars: mouse, 37 °C, read-out: CC50 against murine macrophage J774.A1. As to the method: The murine macrophages J774A.1 (ATCC# TIB-67) cell line was cultured in RPMI 1640 medium supplemented with 10% fetal bovine serum at 37 °C and 5% CO2 atmosphere, was used for the cytotoxicity assays.
The cytotoxicity assay was carried out using the alamarBlue® method as previously described. Firstly, the macrophages were seeded in triplicate on a 96-well microtiter plates with 50 μL from a stock solution of 2 × 10^5 cells/mL. Macrophages were left to adhere to the bottom of the well for 15 min, which was checked using a Leika DMIL inverted microscope (Leika, Wetzlar, Germany). After that, 50 μL of serial dilutions of the molecules were added to the wells. Finally, the alamarBlue Reagent® (Life Technologies, Madrid, Spain) was placed into each well at an amount equal to 10% of the final volume. Then, plates containing alamarBlue® were incubated for 24 h at 37 °C in presence of CO2 at 5%.
(§1) Briefly, the test plates were analyzed, during an interval of time between 24 and 96 h, on an EnSpire® Multimode Plate Reader (Perkin Elmer, Madrid, Spain) using fluorescence, a test wavelength of 570 nm and a reference wavelength of 630 nm. The percentage of the growth inhibition, 50% inhibitory concentration (IC50 or CC50) was calculated by linear regression analysis with 95% confidence limits using Sigma Plot 12.0 statistical analysis software (Systat Software). All experiments were performed three times, and the mean values were also calculated. A paired two-tailed t-test was used for analysis of the data. Values of p < 0.05 were considered significant.
A general note: The colour change of resazurin is a common sign of viable cells or microbes.

Data set [2] deals with Acanthamoeba castellanii Neff. In words: anti-Acanthamoeba activity, alamarBlue method. The class given is cell-based. Particulars: for IC50: Acanthamoeba castellanii, ATCC30010, 96 h, read-out: IC50 against Acanthamoeba castellanii Neff; for anti-Acanthamoeba activity (in words): Acanthamoeba castellanii Neff. The procedure:
The amoeba strain used in this study was the type strain: Acanthamoeba castellanii Neff (ATCC 30010) which was axenically grown in PYG medium (0.75% (w/v) proteose peptone, 0.75% (w/v) yeast extract and 1.5% (w/v) glucose) containing 40 μg/mL of gentamicin (Biochrom AG, Cultek, Granollers, Barcelona, Spain).
To evaluate the biological activity of the fractions and molecules, the anti-Acanthamoeba assays were determined using the alamarBlue® method as previously described. Firstly, Acanthamoeba strain was seeded in triplicate on a 96-well microtiter plates with 50 μL from a stock solution of 10^4 cells/mL. Amoebae were left to adhere to the bottom of the well for 15 min, which was checked using a Leika DMIL inverted microscope (Leika, Wetzlar, Germany). After that, 50 μL of serial dilutions of the molecules were added to the wells (1% DMSO was used to dissolve the highest dose of the compounds with no effects on the parasites). […] Finally, the alamarBlue Reagent® (Life Technologies, Madrid, Spain) was placed into each well at an amount equal to 10% of the final volume. Then, plates containing alamarBlue® were incubated for 96 h at 26 °C with a slight agitation.
as §1

The mark [3] stands for this setting: J774A.1 macrophages (ATCC TIB-67).
Where [4] appears, read: Neff strain (ATCC 30010), alamarBlue, 96 h at 26 °C.

Consider 11 compounds from publication PMC6266398, “Anti-Acanthamoeba Activity of Brominated Sesquiterpenes from Laurencia johnstonii” (Marine Drugs, 2018).

Converted amounts (≈) assume the structure as drawn. “And” between values parts separate entries of the source, which are not always exact repeats. Identical values can stand only once. Like-named read-outs stand apart in the source and are kept apart here.

As usually defined, the CC50 is the concentration giving 50% cytotoxicity. Usually IC50 stands for the concentration needed to halve the response being measured. As for `Cc1c(Br)cc2c(c1Br)O[C@@]1(CBr)[C@@H](C)CC[C@@]21C` [compound 8, 8,10-Dibromoisoaplysin], the CC50 at 24 h in data set [1] is 70.4 ± 3.25 µg/mL (≈ 155 µM). Besides, the IC50 in data set [2] was 22.8 µg/mL and 50.4 µM.

`C=C1[C@@H](C)CC[C@@]1(C)c1cc(Br)c(C)cc1O` [compound 2, isolaurinterol]: in data set [1] (setting [3]), the CC50 at 24 h was found to be 7.25 ± 0.7 µg/mL (≈ 24.6 µM). Moreover, the “anti-Acanthamoeba activity (in words)” value in data set [2] was “inactive”. For the same compound, the IC50 in data set [2] (setting [4]) was over 100 µg/mL.

On to `C[C@@H](c1ncncc1F)[C@](O)(Cn1cncn1)c1ccc(F)cc1F` [Voriconazole, voriconazole, reference compound], for which the CC50 at 24 h in data set [1] (setting [3]) was 2.64 ± 0.27 µg/mL (≈ 7.56 µM). Further, the IC50 in data set [2] (setting [4]) was 0.33 µg/mL and 940 nM.

With `Cc1c(Br)cc2c(c1Br)O[C@@]1(CO)[C@@H](C)CC[C@@]21C` [compound 9, 8,10-Dibromoaplysinol], in data set [1] (setting [3]), the CC50 at 24 h was determined as 74.9 ± 2.77 µg/mL (≈ 192 µM). Besides, in data set [2] (setting [4]), the IC50 is 29.9 µg/mL and 76.7 µM.

`[H]/N=C(\N/C(=N/[H])NCCCCCCNC(=N)NC(=N)Nc1ccc(Cl)cc1)Nc1ccc(Cl)cc1` [Chlorhexidine, chlorhexidine, reference compound]: the CC50 at 24 h in data set [1] (setting [3]) came out at 6.64 ± 0.35 µg/mL (≈ 13.1 µM). Also, the IC50 in data set [2] (setting [4]) is 1.53 µg/mL and 3.02 µM.

For the compound `Cc1cc2c(cc1Br)[C@]1(C)CC[C@H](C)[C@]1(C)O2` [compound 3, aplysin], in data set [1] (setting [3]), the CC50 at 24 h was 324 ± 12 µg/mL (≈ 1100 µM). In addition, the IC50 in data set [2] (setting [4]) is over 100 µg/mL.

As to `Cc1c(Br)cc2c(c1Br)O[C@@]1(C)[C@@H](C)CC[C@@]21C` [compound 6, 8-Bromoaplysin], the CC50 at 24 h in data set [1] (setting [3]) was determined as 32.9 ± 3.12 µg/mL (≈ 87.9 µM). Further, the IC50 in data set [2] (setting [4]) was 24.6 µg/mL and 65.6 µM.

In the case of `Cc1cc(O)c(C2(C)CCC3CC32C)cc1Br` (centres unmarked) [compound 1, laurinterol], the CC50 at 24 h in data set [1] (setting [3]) was determined as 23.6 ± 2.3 µg/mL (≈ 80.1 µM). Moreover, in data set [2], the “anti-Acanthamoeba activity (in words)” value is “inactive”. In addition, the IC50 in data set [2] (setting [4]) was over 100 µg/mL.

Regarding `Cc1c(Br)cc2c(c1Br)O[C@@]1(C)C[C@@H](Br)CC[C@@]21C` [compound 7, 3α-Bromojohnstane], the 50% cytotoxic concentration (CC50) at 24 h in data set [1] (setting [3]) is 62.3 ± 2.59 µg/mL (≈ 138 µM). In addition, the IC50 in data set [2] (setting [4]) was 18.8 µg/mL and 41.5 µM.

As for `Cc1ccc([C@]2(C)CC[C@H](Br)C2(C)C)cc1` [compound 5, α-isobromocuparane], the CC50 at 24 h in data set [1] (setting [3]) is 85.3 ± 10.9 µg/mL (≈ 303 µM). For the same compound, in data set [2] (setting [4]), the IC50 is 64.2 µg/mL and 228 µM; the “IC50 against Acanthamoeba castellanii Neff” value is 64.251 ± 3.492 µg/mL (≈ 228 µM).

Turning to `Cc1ccc([C@]2(C)CC[C@@H](Br)C2(C)C)cc1` [compound 4, α-bromocuparane], in data set [1] (setting [3]), the 50% cytotoxic concentration (CC50) at 24 h stood at 33 ± 4.2 µg/mL (≈ 117 µM). Besides, in data set [2] (setting [4]), the IC50 was 90.7 µg/mL and 322 µM; the “IC50 against Acanthamoeba castellanii Neff” value was found to be 90.674 ± 1.529 µg/mL (≈ 322 µM).
